Measured values reported in US10532038B2, “Beta-3 adrenoceptor agonists for the treatment of pulmonary hypertension” (FUNDACIÓN CENTRO NACIONAL DE INVESTIGACIONES …, priority 2012, dated 2020).

Experiments:
animals with acute PH = experiment: Single dose in acute PH due to pulmonary embolism; type: in vivo, pigs; conditions: 5 μg/Kg endovenous, 10 minutes after administration
From the text: In 10 2 month old healthy pigs (weighing ≈30 kg) anesthetized, intubated and ventilated with 40% FiO2, while continuously monitoring blood pressure, heart rate (HR), oxygen saturation as well as PAP and repeated measurements of cardiac output (CO) by means of thermodilution using a Swan-Ganz catheter, acute PH was generated by means of pulmonary embolization with a suspension of microspheres (Sephadex G50 coarse; Pharmacia Biotech; Freiburg, Germany) by femoral vein route. The dose necessary for causing an increase of mean PAP≥40 mmHg to remain stable for 10 minutes was administered. At that time the animals were randomized to receive specific β3 agonist BRL37344 (5 μg/Kg) or physiological saline (vehicle).
(§1) Cardiac output was quantified by the thermodilution technique.
(§2) A value of P<0.05 was considered significant.

[1] = tested on: post-capillary chronic PH model; experiment: Single dose in chronic post-capillary PH
From the text: The post-capillary PH model was generated by means of the non-restrictive surgical cerclage of the main pulmonary vein in 4 week old piglets (weighing about 10 kg). This vein drains the blood from both lower lung lobes, forming about 80% of the pulmonary mass. With analgesia and general anesthesia and under cardiac monitoring and orotraqueal intubation, the right external jugular vein and common carotid artery were located by means of surgical dissection. The Swan-Ganz catheter was introduced through the venous access to continuously monitor PAP, pulmonary capillary pressure and cardiac output. The arterial route also served to monitor systemic blood pressure during the surgical intervention. By means of right lateral thoracotomy through the fifth intercostal space, non-restrictive cerclage of the main pulmonary vein was performed by means of placing a 5 mm wide polyester band around the vessel fitting the at-rest diameter of the pulmonary venous confluence right before it enters the left atrium. […] It is therefore a progressive PH model (severity intensifies throughout follow-up). […] At the end of follow-up, the animals were euthanized and their hearts extracted for histological analysis.
(§3) The hemodynamic study was conducted by means of right heart catheterization strictly using the same methodology as in humans. Once PH was generated, the following parameters were quantified basally and after the administration of the β3 agonist, in duplicate: PAP, pulmonary capillary pressure and right atrial pressure. Cardiac output was quantified by the thermodilution technique. Five measurements were taken, and the mean of 3 measurements was considered after excluding the highest and lowest determinations. Left ventricular end-diastolic pressure was determined by means of placement of a pig-tail catheter inside the left ventricle through the femoral artery. Pulmonary vascular resistances were calculated as the difference between mean PAP and left ventricular end-diastolic pressure divided by the cardiac output and expressed in Wood units.
The effect of the drug was evaluated 10 minutes after administration in acute PH and 20 minutes after administration in chronic PH.
The continuous variables are expressed as mean±SD and qualitative variables are expressed as frequency (%). The comparison between the intervention groups with respect to changes in the variables, calculated as the difference between the post-treatment and pre-treatment value (both in acute PH and chronic PH), was performed by means of the Wilcoxon test. The evaluation of the effect of a single dose of β3 agonist on the hemodynamic parameters in chronic PH was performed by means of the Student's T test or Wilcoxon test for paired data, according to the distribution of the variables. A value of P<0.05 was considered significant.

[2] = tested on: pre-capillary chronic PH model; experiment: Single dose in chronic pre-capillary PH; type: in vivo, Large-White pigs, Sus scrofa
From the text: The pre-capillary PH model was generated by means of pulmonary arterial embolization with synthetic microspheres 300 microns in diameter (Sephadex G50 coarse; Pharmacia Biotech; Freiburg, Germany), a variant of a model previously described (Bernd W. Bottiger, MD; Johann Motsch, MD; Joachim Dorsam, MD; UlfMieck, MD; Andre Gries, MD, forg Weimann, MD; and Eike Martin, MD. Inhaled Nitric Oxide Selectively Decreases Pulmonary Artery Pressure and Pulmonary Vascular Resistance Following Acute Massive Pulmonary Microembolism in Piglets. CHEST1996; 110:1041-47).
The protocol was initiated in 3 month old Large-White pigs, Sus scrofa species (weighing ≈40 kg). After general anesthesia and analgesia and under cardiac monitoring and orotracheal intubation, the femoral vein and artery were cannulated by means of percutaneous puncture in the cardiac hemodynamics laboratory. Through the venous access, a Swan-Ganz catheter was placed in one of the main branches of the pulmonary artery (PA), which was connected to a monitor to continuously record PAP and to quantify pulmonary capillary pressure and cardiac output. The arterial route allowed continuously recording systemic blood pressure. Venous access served to administer the microspheres towards the pulmonary arterial circulation. A solution was prepared with 500 mg of microspheres in 200 ml of physiological saline and the amount necessary to reach mean sustained PAP>40 mmHg in about 20 minutes was administered. This method was repeated weekly (3-5 embolizations) until generating chronic PH (mean PAP>25 mmHg at rest). Two-month follow-up was conducted on the animals. […] The histopathological lesions observed in the lung reproduce those shown in arterial PH or chronic thromboembolic PH in humans: arterial intima proliferation with media hypertrophy and perivascular fibrosis, vascular occlusions, and complex lesions such as vascular aneurisms or plexiform lesions.
as §1, §2

[3] = tested on: animals with post-capillary chronic PH; experiment: Chronic endovenous treatment in post-capillary chronic PH (blind, randomized); conditions: 10 μg/Kg/day for 14 days
From the text: The post-capillary PH model was generated by means of the non-restrictive surgical cerclage of the main pulmonary vein in 4 week old piglets (weighing about 10 kg). This vein drains the blood from both lower lung lobes, forming about 80% of the pulmonary mass. With analgesia and general anesthesia and under cardiac monitoring and orotraqueal intubation, the right external jugular vein and common carotid artery were located by means of surgical dissection. The Swan-Ganz catheter was introduced through the venous access to continuously monitor PAP, pulmonary capillary pressure and cardiac output. The arterial route also served to monitor systemic blood pressure during the surgical intervention. By means of right lateral thoracotomy through the fifth intercostal space, non-restrictive cerclage of the main pulmonary vein was performed by means of placing a 5 mm wide polyester band around the vessel fitting the at-rest diameter of the pulmonary venous confluence right before it enters the left atrium. […]
as §3, with “Five measurements were taken, and the mean of 3 measurements was considered after excluding the highest and lowest determinations.” left out
The continuous variables are expressed as mean±SD and qualitative variables are expressed as frequency (%). The comparison between the intervention groups with respect to changes in the variables, calculated as the difference between the post-treatment and pre-treatment value (both in acute PH and chronic PH), was performed by means of the Wilcoxon test. […]

[4] = tested on: animals with post-capillary chronic PH; experiment: Chronic oral treatment in post-capillary chronic PH (blind, randomized); type: in vivo, pigs; conditions: 50 mg/12 hours orally for 14 days; intermediate analysis (N=4); control group showed an increase of PVRs
Description: as §1
To evaluate the chronic effect of treatment with Mirabegron, a 50 mg tablet was administered orally every 12 hours in all cases. The fixed dose for all the animals was based on doses used in humans for different pathologies (never PH because it has never been tested in this entity), resulting in no adverse effects. The dose used for treating neurogenic bladder is 25 to 50 mg/day, whereas in studies designed to evaluate the effect of this drug in heart failure (see “Beta 3 Agonist Treatment in Heart Failure (Beat-HF) NCT01876433”), the expected initial dose is 25 mg/12 hours, being titrated to a maximum of 150 mg/12 hours. The dose of 50 mg/12 hours intends to be an average dose that can be easily extrapolated to patients with whom an efficacy study could be conducted knowing that the side effect profile is favorable.
Another cohort of animals with post-capillary chronic PH were randomized into chronic therapy for 14 days with Mirabegron (Myrbetrig® 50 mg/12 hours) or placebo. Right heart catheterization was performed pre- and post-treatment.

[5] = 5 μg/Kg endovenous single dose, 20 minutes after administration

Compound: C[C@H](Cc1ccc(OCC(=O)O)cc1)NC[C@H](O)c1cccc(Cl)c1 [BRL 37344, [4-[(2R)-2-[[(2R)-2-(3-clorophenyl)-2-hydroxyethyl]amino]propyl]phenoxy]acetic acid]
- variation of mean systemic blood pressure (animals with acute PH; placebo 1.0±7.4, p=0.31, not significant): −4.6±8.0
- change of CO (post- minus pre-treatment) (animals with acute PH; placebo −0.20±0.31, p=0.008): 0.62±0.53
- change of PVR (post- minus pre-treatment) (animals with acute PH; placebo −0.4±1.3, p=0.008): −6.5±2.4
- variation of HR (animals with acute PH; placebo −3.0±7.1, p=0.84, not significant): −4.4±14.1
- change of PAPm (post- minus pre-treatment) (animals with acute PH; placebo −3.8±4.2, p=0.008): −13.0±4.5
- increase of oxygen saturation [1, 5]: 3.2%
- increase of the cardiac output [1, 5]: 18%
- reduction of pulmonary vascular resistances [1, 5]: 36%
- reduction of systolic pulmonary pressure [1, 5]: 23%
- reduction of the mean PAP [1, 5]: 30%
- cardiac output after administration ([1]; 5 μg/Kg endovenous, 20 minutes, from 3.29±0.9 before, p=0.07): 3.90 ± 1.5 L/min
- pulmonary vascular resistances after administration ([1]; 5 μg/Kg endovenous, 20 minutes, from 10.0±4.3 before, p=0.002): 6.4±3.2 Wood units
- mean PAP after administration ([1]; 5 μg/Kg endovenous, 20 minutes, from 37.6±9.8 before, p<0.001): 28.8±9.8 mmHg
- systolic pulmonary pressure after administration ([1]; 5 μg/Kg endovenous, 20 minutes, from 50.6±15.5 before, p<0.001): 38.9±9.9 mmHg
- heart rate after administration ([1]; 5 μg/Kg endovenous, 20 minutes, from 83.8±21.1 before, p=0.20, no significant change): 87.8±16.8 bpm
- systemic blood pressure after administration ([1]; 5 μg/Kg endovenous, 20 minutes, from 85.7±13.9 before, p=0.11, no significant change): 79.9±6.9 mmHg
- oxygen saturation after administration ([1]; 5 μg/Kg endovenous, 20 minutes, from 90.88±2.64 before, p=0.001): 93.75±3.01%
- changes in heart rate [2, 5]: without significant changes
- changes in systemic blood pressure [2, 5]: without significant changes
- decrease of the mean PAP [2, 5]: 32%
- increase of oxygen saturation [2, 5]: 2%
- reduction of systolic PAP [2, 5]: 25%
- mean PAP after administration ([2]; 5 μg/Kg endovenous, 20 minutes, from 29.5±2.1 before): 20.0±5.7 mmHg
- systolic PAP after administration ([2]; 5 μg/Kg endovenous, 20 minutes, from 37.5±6.4 before): 28.0±8.5 mmHg
- change of pulmonary vascular resistances (PVRs) after 14 days ([3]; osmotic pump, jugular vein, placebo +1.3±1.2, p=0.042): −1.2±1.6 WU
- change in heart rate after 14 days ([3]; placebo 3.0±28.2, p=0.49, not significant): −8.2±15.1 bpm
- change in systemic mean blood pressure after 14 days ([3]; placebo 4.3±7.0, p=0.25, not significant): 2.3±6.9 mmHg

Compound: Nc1nc(CC(=O)Nc2ccc(CCNC[C@H](O)c3ccccc3)cc2)cs1 [Mirabegron]
- change of PVRs after 14 days [4]: a reduction of PVRs was observed
